Where two headings read alike, the source gives them in different places.
Key:
MV-3 cells = assay: MTT cell viability (antiproliferative) assay; assay type: cell-based, human; conditions: for EC50: Homo sapiens, read-out: MV-3 EC50 (MTT); for viability reduction, MV-3 (MTT): at 15 μM, 72 h
Protocol: (§1) To evaluate the cytotoxicity of the selected HDAC inhibitors, compounds were tested for their antiproliferative activity against MV-3 and MDA-MB-231 cells using the MTT assay. […] MTT (3-(4,5-dimethylthiazol-2-yl)-2,5-diphenyltetrazolium bromide; Catalog# A2231; BioChemica, Applichem GmbH, Darmstadt, Germany) was utilized to measure the antiproliferative effect. Depending on the incubation time, 3000 MV-3 cells (72 h), 2000 MV-3 cells (96 h) or 1000 MV-3 cells (120 h) per well were seeded in 96-well plates (Starlab GmbH, Hamburg, Germany) with each well containing 199 μL of volume. […] Next, predilutions of the test compounds were prepared in DMSO. […] Subsequently, cells were treated with 1.0 μL of the dilution series of the test compounds. […] After removing the supernatant, formazan was solubilized in 200.0 μL DMSO. The absorbance was measured at 570 nm with background subtraction at 690 nm using a Multiskan microplate photometer (Thermo Fisher Scientific, Waltham, MA, USA). The obtained data were normalized to PBS, considering 100% viability.

MDA-MB-231 cells [1] = assay: MTT cell viability (antiproliferative) assay; assay type: cell-based; conditions: Homo sapiens
Protocol: as §1

HEK293 cells = assay: CellTiter-Glo 2.0 cell viability assay; assay type: cell-based; conditions: Homo sapiens; for EC50: 120 h incubation, nontumorigenic cell line
Protocol: (§2) To evaluate the cytotoxicity of the selected HDAC inhibitors, compounds were tested for their antiproliferative activity against MV-3 and MDA-MB-231 cells using the MTT assay. […] (Promega; Walldorf, Germany) was utilized to assess the antiproliferative effects. MM.1S and HEK293 cells were seeded at a density of 1000 cells per well in 384-well plates, with each well containing 22.5 μL of volume. […] Subsequently, cells were stimulated with 2.5 μL of the dilution series of the test compounds. Following compound exposure, the plates were incubated for 120 h in the incubator set at 37 °C with 5% CO2. Post 120 h of incubation, 25.0 μL of CellTiter-Glo reagent was dispensed into each well and the plates were incubated at the room temperature for 10 min. Luminescence was then measured using a Spark multimode microplate reader (Tecan Group AG, Maennedorf, Swiss). Data were normalized against controls: wells treated with 0.5% DMSO were set as 100% viable, while those treated with 10% DMSO were considered completely nonviable (0% viability).

MM.1S cells = assay: CellTiter-Glo 2.0 cell viability assay; assay type: cell-based; conditions: Homo sapiens, MM1.S; 120 h incubation
Protocol: as §2

Ac-α-tubulin (HDAC6) = assay: Immunoblot analysis of MV-3 cell lysates; assay type: cell-based, human; conditions: MV-3, 5 μM, 24–72 h
HDAC1 [2] = conditions: cited from earlier work
MDA-MB-231 cells [3] = assay: Annexin V/PI apoptosis assay; conditions: MDA-MB-231, 10 μM, 48 h
[4] = test system: HDACs in MDA-MB-231 cells; assay: HDAC whole cell inhibition assay; conditions: Homo sapiens, MDA-MB-231, light or radiation study, 18 h, read-out: whole-cell HDAC inhibition EC50, MDA-MB-231
HDACs in HEK293 cells = assay: HDAC whole cell inhibition assay; conditions: Homo sapiens, HEK293, read-out: whole-cell HDAC inhibition EC50, HEK293
HDACs in MM.1S cells = assay: HDAC whole cell inhibition assay; conditions: Homo sapiens, MM1.S, read-out: whole-cell HDAC inhibition EC50, MM.1S
HDAC1 [5] = biological target: HDAC1 (Homo sapiens, UniProt Q13547); assay: Binding kinetics via the progression method (continuous HDAC assay); assay type: biochemical; set-up: purchased BPS Bioscience Inc. #50051; conditions: 45 min, 28 °C
Protocol: To this end, HDAC1, the substrate, and trypsin were incubated directly with the inhibitor at various concentrations and fluorescence was recorded continuously for 45 min. […] By plotting the ratio of the deacetylation rate in the presence of the inhibitor (v i) to the rate in absence of any inhibitor (v 0) as a function of the inhibitor concentration and fitting the data to an appropriate model (eq 3), the equilibrium […] K i was determined (Figure ).
To investigate the binding mode of both compounds, we performed molecular docking studies. Specifically, ST13 was docked into HDAC2 (PDB ID: 3MAX), a cocrystal structure containing an HDAC inhibitor with an ortho-aminoanilide ZBG and a phenyl group as the FPU.
Appropriate test compound concentrations were chosen based on the previously determined IC50 values. […] Each progression curve was fitted to either obtain the apparent first-order rate constant k obs (eq ) or the linear conversion rates v i and v 0 (eq ). For fast-on/fast-off inhibitors, the ratio v i/v 0 was plotted against the corresponding inhibitor concentrations.

[6] = MV-3, light or radiation study, incubation time 120 h, no irradiation
[7] = MDA-MB-231, light or radiation study, incubation time 120 h, no irradiation
[8] = MDA-MB-231, incubation time 96 h

Chain of HDAC1 (Homo sapiens, UniProt Q13547) (Q13547 whole entry): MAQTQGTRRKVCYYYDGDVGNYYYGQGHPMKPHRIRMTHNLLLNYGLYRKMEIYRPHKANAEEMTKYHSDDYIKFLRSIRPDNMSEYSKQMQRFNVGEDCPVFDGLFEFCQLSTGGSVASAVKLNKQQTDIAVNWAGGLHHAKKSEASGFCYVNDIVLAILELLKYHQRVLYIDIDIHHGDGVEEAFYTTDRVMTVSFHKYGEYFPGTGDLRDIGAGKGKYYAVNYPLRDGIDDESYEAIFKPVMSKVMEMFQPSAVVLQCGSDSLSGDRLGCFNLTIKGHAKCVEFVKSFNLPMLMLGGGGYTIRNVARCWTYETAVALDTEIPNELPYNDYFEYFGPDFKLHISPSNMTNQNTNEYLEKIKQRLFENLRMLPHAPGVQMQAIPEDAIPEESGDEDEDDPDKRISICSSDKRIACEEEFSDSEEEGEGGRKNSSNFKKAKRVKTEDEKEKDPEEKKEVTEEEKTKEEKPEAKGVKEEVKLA

| Structure (SMILES) | EC50 (MV-3 cells; [6]) [nM] | EC50 (MV-3 cells; MV-3, incubation time 96 h) [nM] | viability reduction, MV-3 (MTT) (MV-3 cells) [%] | EC50 (MDA-MB-231 cells [1]; [7]) [nM] | EC50 (MDA-MB-231 cells [1]; [8]) [nM] | EC50 (HEK293 cells) [nM] | inhibition at 5 µM (HEK293 cells; at 5.00 μM, 120 h, read-out: inhibition at the stated concentration, HEK293 (CellTiter-Glo)) [%] | EC50 (MM.1S cells) [nM] | acetylation level of α-tubulin (immunoblot) (Ac-α-tubulin (HDAC6)) | IC50 (HDAC1 [2]; previously described, ref Methot et al.) [nM] | apoptosis induction (annexin V/PI) (MDA-MB-231 cells [3]) | EC50 [4] [nM] | EC50 (HDACs in HEK293 cells) [nM] | EC50 (HDACs in MM.1S cells) [nM] | binding mechanism at HDAC1 (progression curves, kobs versus inhibitor concentration) (HDAC1 [5]) | IC50 (HDAC1 [2]; literature value for Cpd-60, ref number not given) [nM] |
| --- | --- | --- | --- | --- | --- | --- | --- | --- | --- | --- | --- | --- | --- | --- | --- | --- |
| CC(=O)Nc1ccc(C(=O)Nc2cc(-c3ccccc3)ccc2O)cc1 [ST13, 4-Acetamido-N-(4-hydroxy-[1,1′-biphenyl]-3-yl)-benzamide] | 2770 ± 880 | 7940 ± 1360 | < 25 | 4870 ± 860 | 13900 ± 3400 | > 5000 | < 25 | 198 | absence of HDAC6 inhibition | 18 | significantly induced apoptosis | 577 ± 97 | 333 ± 64 | 637 ± 158 | induced fit slow-binding mechanism |  |
| CC(=O)Nc1ccc(C(=O)Nc2cc(-c3cccs3)ccc2N)cc1 [Cpd-60, reference compound] | 370 ± 40 | 2340 ± 790 | < 25 | 890 ± 250 | 3210 ± 1010 | 1500 |  | 111 | absence of HDAC6 inhibition |  | significantly induced apoptosis | 87 ± 8 | 178 ± 23 | 111 ± 38 | induced fit slow-binding mechanism | 7 |

— PMC12706802, “Ortho-Hydroxyanilides: Slow-Acting, Selective Histone Deacetylase 1/2 Inhibitors Suitable for Photocaging Applications” (ACS Pharmacology & Translational Science, 2025)
